Values quoted from earlier work, collected in patent US20170143824A1 (Teva Pharmaceutical Industries, Ltd., priority 2013, published 2017).

Test system: patients with RRMS
Conditions: registration trials, compared with placebo

For “L-glutamic acid polymer with L-alanine, L-lysine, L-tyrosine, acetate (salt) [glatiramer acetate]”, which “reduction of relapse rate” value is on record?
The value was “about one third”.
